Reference: US11548855B2, “Pyrazole amide compound and application thereof, and fungicide” (Shandong United Pesticide Industry Co. Ltd., priority 2017, dated 2023)
Where two headings read alike, the source gives them in different places.

What was measured:
Assay type in all cases: in vivo
[1] = test system: corn rust (Puccinia sorghi); experiment: Greenhouse pot test, corn rust; conditions: Puccinia sorghi, 168 h, read-out: Control effect (%) Corn rust; for pest or weed control at 6.25 µg/mL: 6.25 mg/L; for pest or weed control at 25 µg/mL: 25 mg/L; for pest or weed control at 100 µg/mL: 100 mg/L; for pest or weed control at 1.5625 µg/mL: 1.5625 mg/L; for pest or weed control at 3.125 µg/mL: 3.1250 mg/L
Method: (§1) Test method: each of the test compounds in Table 1 was dispensed to 5 wt % emulsifiable concentrate (hereinafter referred to as 5% EC). The greenhouse pot test was used in each experiment, and the effective concentrations of each compound were illustrated in Table 1.
Corn rust: two-three leaf stage potted corn seedling with uniform growth was selected and made foliar spray treatment with 5% EC, the blank control sprayed with clean water was additionally arranged, three replicates were carried out. After 24 h, the leaves of the host plants were inoculated with sporangial suspensions of the fungi corn rust (Puccinia sorghi), the plants were stored in humidity chamber (temperature: lighting 25° C., dark 20° C., relative humidity 95-100%) and then transferred to greenhouse (25±1° C.) 24 h after infection. After 7 days, the screening results were investigated according to the disease incidence condition of blank control.
(§2) The investigation method: “Guidelines for the field efficacy trials of pesticides” was adopted as the grading standard, and the control effect in a unit of % was calculated based on the disease index. Disease index=Σ(number of diseased leaves at each grade×relative grade value)×100/(total number of leaves×9); Control effect (%)=(disease index of control−disease index of treated)×100/disease index of control;
(§3) The compounds provided by the present disclosure and some control compounds were tested by the same methods in the Test example 1, except that the effective concentrations of the compounds in this Test example are shown in Table 2.

[2] = test system: soybean rust (Phakopsora pacchyrhizi Sydow); experiment: Greenhouse pot test, soybean rust; conditions: Glycine max, 168 h, read-out: Control effect (%) Soybean rust; for pest or weed control at 6.25 µg/mL: 6.25 mg/L; for pest or weed control at 25 µg/mL: 25 mg/L; for pest or weed control at 100 µg/mL: 100 mg/L; for pest or weed control at 1.5625 µg/mL: 1.5625 mg/L; for pest or weed control at 3.125 µg/mL: 3.1250 mg/L
Method: as §1
Soybean rust: two-leaf stage potted soybean seedling with uniform growth was selected and made foliar spray treatment with 5% EC, the blank control sprayed with clean water was additionally arranged, three replicates were carried out. After 24 h, the leaves of the host plants were inoculated with sporangial suspensions of the fungi soybean rust (Phakopsora pacchyrhizi Sydow), the plants were stored in humidity chamber (temperature 20-25° C., relative humidity>95%) and then transferred to greenhouse (25±1° C.) 8-16 h after infection. After 7 days, the screening results were investigated according to the disease incidence condition of blank control.
as §2, §3

cucumber powdery mildew = experiment: Greenhouse pot test, cucumber powdery mildew; conditions: for pest or weed control at 6.25 µg/mL / pest or weed control at 25 µg/mL / pest or weed control at 100 µg/mL: Cucumis sativus, 192 h, read-out: Control effect (%) Cucumber powdery mildew
Method: as §1
Cucumber powdery mildew: cucumber seedling in a true leaf period with uniform growth was selected, and dried in the shade for 24 h after spray treatment. Fresh cucumber powdery mildew spores on the cucumber leaves were collected and washed, and filtered through a double gauze to prepare a spores suspension with concentration of about 100,000/mL, then spray inoculation was applied. The test materials inoculated were moved into a greenhouse (lighting 21-23° C.), after 8 days, the grading investigation was carried out according to the disease incidence condition of blank control, and the control effect in a unit of % was calculated according to disease index.
as §2, §3

[3] = test system: wheat powdery mildew (Erysiphe graminis); experiment: Greenhouse pot test, wheat powdery mildew; conditions: Blumeria graminis, 168 h, read-out: Control effect (%) Wheat powdery mildew; for pest or weed control at 6.25 µg/mL: 6.25 mg/L; for pest or weed control at 25 µg/mL: 25 mg/L; for pest or weed control at 100 µg/mL: 100 mg/L; for pest or weed control at 1.5625 µg/mL: 1.5625 mg/L; for pest or weed control at 3.125 µg/mL: 3.1250 mg/L
Source text: as §1
Wheat powdery mildew: two-leaf stage potted wheat seedling with uniform growth was selected and made foliar spray treatment with 5% EC, the blank control sprayed with clean water was additionally arranged, three replicates were carried out. After 24 h, the leaves of the host plants were inoculated by shake-down method with sporangial suspensions of the fungi wheat powdery mildew (Erysiphe graminis), the plants were stored in a greenhouse (25±1° C.). After 7 days, the screening results were investigated according to the disease incidence condition of blank control.
as §2, §3

Row | Compound | pest or weed control at 6.25 µg/mL [1] [%] | pest or weed control at 25 µg/mL [1] [%] | pest or weed control at 100 µg/mL [1] [%] | pest or weed control at 6.25 µg/mL [2] [%] | pest or weed control at 25 µg/mL [2] [%] | pest or weed control at 100 µg/mL [2] [%] | pest or weed control at 6.25 µg/mL (cucumber powdery mildew; greenhouse pot, 6.25 mg/L) [%] | pest or weed control at 25 µg/mL (cucumber powdery mildew; greenhouse pot, 25 mg/L) [%] | pest or weed control at 100 µg/mL (cucumber powdery mildew; greenhouse pot, 100 mg/L) [%] | pest or weed control at 6.25 µg/mL [3] [%] | pest or weed control at 25 µg/mL [3] [%] | pest or weed control at 100 µg/mL [3] [%] | other results
1 | Cn1nc(C(F)F)c(C(=O)Nc2ccccc2Oc2ccc(C(F)(F)F)cc2Br)c1F [Compound 2] | 98 | 100 | 100 | 96 | 100 | 100 | 45 | 55 | 88 | 70 | 75 | 85 | –
2 | Cn1nc(C(F)F)c(C(=O)Nc2ccccc2Oc2ccc(C(F)(F)F)cc2I)c1F [Compound 3] | 75 | 100 | 100 | 85 | 100 | 100 | 45 | 70 | 95 | 65 | 80 | 80 | –
3 | Cn1cc(C(=O)Nc2ccccc2Oc2cc(C(F)(F)F)ccc2C(F)(F)F)c(C(F)F)n1 [Compound 5] | 70 | 75 | 85 | 95 | 98 | 100 | – | – | – | 10 | 40 | 50 | –
4 | Cn1nc(C(F)F)c(C(=O)Nc2ccccc2Oc2ccc(C(F)(F)F)cc2C(F)(F)F)c1F [Compound 6] | 98 | 100 | 100 | 90 | 100 | 100 | 50 | 75 | 98 | 85 | 90 | 92 | –
5 | Cn1cc(C(=O)Nc2ccccc2Oc2ccc(Cl)cc2Cl)c(C(F)F)n1 [Compound 7] | 90 | 95 | 100 | 96 | 98 | 100 | 30 | 60 | 89 | 60 | 75 | 90 | pest or weed control at 1.5625 µg/mL [1]: 50%; pest or weed control at 3.125 µg/mL [1]: 60%; pest or weed control at 1.5625 µg/mL [2]: 90%; pest or weed control at 3.125 µg/mL [2]: 100%; pest or weed control at 1.5625 µg/mL [3]: 0%; pest or weed control at 3.125 µg/mL [3]: 50%
6 | Cn1cc(C(=O)Nc2ccccc2Oc2ccc(C(F)(F)F)cc2Cl)c(C(F)F)n1 [Compound 8] | 95 | 99 | 100 | 99 | 100 | 100 | 40 | 60 | 95 | 65 | 75 | 94 | pest or weed control at 1.5625 µg/mL [1]: 85%; pest or weed control at 3.125 µg/mL [1]: 98%; pest or weed control at 1.5625 µg/mL [2]: 98%; pest or weed control at 3.125 µg/mL [2]: 100%; pest or weed control at 1.5625 µg/mL [3]: 70%; pest or weed control at 3.125 µg/mL [3]: 90%
7 | CC1COC(Cn2cncn2)(c2ccc(Oc3ccc(Cl)cc3)cc2Cl)O1 (stereo not drawn) [Difenoconazole] | – | – | – | – | – | – | – | – | 80 | – | – | – | –
8 | CCCCc1c(C)nc(NCC)[nH]c1=O [Ethirimol] | – | – | – | – | – | – | – | – | – | – | – | – | pest or weed control at 100 µg/mL (cucumber powdery mildew): 100%
9 | Cn1cc(C(=O)Nc2ccccc2-c2cc(F)c(F)c(F)c2)c(C(F)F)n1 [Fluxapyroxad] | – | – | – | – | – | – | – | – | – | – | – | – | Control effect (%) Cucumber powdery mildew (cucumber powdery mildew; greenhouse pot, 1.5625 mg/L): 55%; Control effect (%) Cucumber powdery mildew (cucumber powdery mildew; greenhouse pot, 6.25 mg/L): 95%; Control effect (%) Cucumber powdery mildew (cucumber powdery mildew; greenhouse pot, 25 mg/L): 100%; Control effect (%) Cucumber powdery mildew (cucumber powdery mildew; greenhouse pot, 100 mg/L): 100%
